Experimental data as given in patent US20140249031A1, “MICELLE-COATED CRYSTALLINE PARTICLES” (SYNGENTA LIMITED, priority 2011, published 2014).

Experiments:
[1] = Visual release rate test of Bitrex in water; type: physicochemical; conditions: after 15 minutes; 0.4 mg agitated in 10 ml of water
Protocol: 0.4 mg of sample was agitated in 10 ml of water and observed over 8 hours.

[2] = UV/Vis release rate measurement of Bitrex in water; type: physicochemical; conditions: 100 mg in 40 ml water
Protocol: 2 ml of the mixture was removed at each time interval for analysis.

CC[N+](CC)(CC(=O)Nc1c(C)cccc1C)Cc1ccccc1 [uncoated Bitrex, denatonium benzoate]
visual release: state of sample in water [1]: fully dissolved
% release of Bitrex relative to the total content ([2]; 5 minutes): 99.6%
% release of Bitrex relative to the total content ([2]; 15 minutes): 99.8%
